In the supplement of paper PMC10307832:

How the values were obtained:
Assay in all cases: relative viability (nuclei count vs DMSO), 5 days (fraction); higher = more cells survive
GSK126 + Navitoclax = compound: CC[C@H](C)N1C=C(C2=C(C=C(C=C21)C3=CN=C(C=C3)N4CCNCC4)C(=O)NCC5=C(C=C(NC5=O)C)C)C [GSK126] + CC1(C)CCC(c2ccc(Cl)cc2)=C(CN2CCN(c3ccc(C(=O)NS(=O)(=O)c4ccc(N[C@H](CCN5CCOCC5)CSc5ccccc5)c(S(=O)(=O)C(F)(F)F)c4)cc3)CC2)C1 [Navitoclax] (partner 0.5 µM)
Procedure, shortened: (§1)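 The day after seeding in 1536-well plates, lung cancer cell lines were treated by pin tool with a single drug, or with a fixed anchor-drug dose together with five library-drug doses (not always all listed) in √10 steps. After 5 days, a combined fix-and-stain solution (final 0.05% Triton X-100, 1% formaldehyde, 1 ug/ml Hoechst) was added. Nuclei counted on 4× images gave relative viability as treated counts over vehicle counts, reported as the median of duplicate plates.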

Carboplatin + Pemetrexed = compound: C1CC(C1)(C(=O)O)C(=O)O.[NH2-].[NH2-].[Pt+2] [Carboplatin] + Nc1nc2[nH]cc(CCc3ccc(C(=O)N[C@@H](CCC(=O)O)C(=O)O)cc3)c2c(=O)[nH]1 [Pemetrexed] (partner 0.2 µM)
Procedure, shortened: as §1

GSK126 + Lapatinib = compound: CC[C@H](C)N1C=C(C2=C(C=C(C=C21)C3=CN=C(C=C3)N4CCNCC4)C(=O)NCC5=C(C=C(NC5=O)C)C)C [GSK126] + CS(=O)(=O)CCNCc1ccc(-c2ccc3ncnc(Nc4ccc(OCc5cccc(F)c5)c(Cl)c4)c3c2)o1 [Lapatinib] (partner 2 µM)
Procedure, shortened: as §1

Carboplatin + Alpelisib = compound: C1CC(C1)(C(=O)O)C(=O)O.[NH2-].[NH2-].[Pt+2] [Carboplatin] + Cc1nc(NC(=O)N2CCC[C@H]2C(N)=O)sc1-c1ccnc(C(C)(C)C(F)(F)F)c1 [Alpelisib] (partner 2 µM)
Procedure, shortened: as §1

UMC-11
relative viability (GSK126 + Navitoclax; first compound 0.08 µM): 0.323 | relative viability (GSK126 + Navitoclax; first compound 0.253 µM): 0.314 | relative viability (GSK126 + Navitoclax; first compound 0.8 µM): 0.316 | relative viability (GSK126 + Navitoclax; first compound 2.53 µM): 0.264 | relative viability (GSK126 + Navitoclax; first compound 8 µM): 0.279 | relative viability (Carboplatin + Pemetrexed; first compound 0.08 µM): 0.853 | relative viability (Carboplatin + Pemetrexed; first compound 0.253 µM): 0.738 | relative viability (Carboplatin + Pemetrexed; first compound 0.8 µM): 0.802 | relative viability (Carboplatin + Pemetrexed; first compound 2.53 µM): 0.689 | relative viability (Carboplatin + Pemetrexed; first compound 8 µM): 0.62 | relative viability (GSK126 + Lapatinib; first compound 0.08 µM): 1.05 | relative viability (GSK126 + Lapatinib; first compound 0.253 µM): 0.998 | relative viability (GSK126 + Lapatinib; first compound 0.8 µM): 1.13 | relative viability (GSK126 + Lapatinib; first compound 2.53 µM): 0.796 | relative viability (GSK126 + Lapatinib; first compound 8 µM): 0.959 | relative viability (Carboplatin + Alpelisib; first compound 0.08 µM): 1 | relative viability (Carboplatin + Alpelisib; first compound 0.253 µM): 0.96 | relative viability (Carboplatin + Alpelisib; first compound 0.8 µM): 0.827 | relative viability (Carboplatin + Alpelisib; first compound 2.53 µM): 0.955 | relative viability (Carboplatin + Alpelisib; first compound 8 µM): 0.588
